Data: ChEMBL document CHEMBL5131526, “Substituted N-Heteroaryl-N-Pyridinylacetamides as P2X4 Modulators for Treating Pain” (ACS Med Chem Lett, 2022)

Target: T1, P2X purinoceptor 4 (Homo sapiens, UniProt Q99571)
T1 sequence (Q99571 whole entry): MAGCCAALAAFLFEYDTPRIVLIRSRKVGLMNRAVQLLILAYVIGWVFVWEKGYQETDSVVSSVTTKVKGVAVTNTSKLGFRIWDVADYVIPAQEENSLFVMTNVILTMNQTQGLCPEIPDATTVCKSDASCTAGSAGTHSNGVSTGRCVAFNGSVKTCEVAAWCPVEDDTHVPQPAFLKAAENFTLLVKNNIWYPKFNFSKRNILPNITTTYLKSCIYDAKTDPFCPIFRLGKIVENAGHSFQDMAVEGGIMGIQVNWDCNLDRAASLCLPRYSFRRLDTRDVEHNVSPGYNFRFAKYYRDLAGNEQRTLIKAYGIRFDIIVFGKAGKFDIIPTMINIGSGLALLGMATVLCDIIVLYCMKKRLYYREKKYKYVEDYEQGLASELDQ
Experiment: Inhibition of human P2X4 stably expressed in human HEK293 cells assessed as intracellular calcium flux incubated for 30 mins in presence of agonist Benzoylbenzoyl-ATP by Fluo8-AM dye based FLIPR assay
Assay type: cell-based

Row | SMILES | IC50 [nM]
1 | CC(=O)N(c1ccc2ncoc2c1)c1cc(NC(=O)Cc2ccccc2Cl)ccn1 | 168
2 | CC(=O)N(c1ccc2ncsc2c1)c1cc(NC(=O)Cc2ccccc2Cl)ccn1 | 142
3 | CC(=O)N(c1ccn2nccc2c1)c1cc(NC(=O)Cc2c(Cl)cccc2Cl)ccn1 | 157
4 | CC(=O)N(c1cc(NC(=O)Cc2c(Cl)cccc2Cl)ccn1)c1ccncc1F | 171
5 | CC(=O)N(c1ccc2ncoc2c1)c1cc(NC(=O)Cc2cccc(F)c2Cl)ccn1 | 143
6 | CC(=O)N(c1ccc2ncoc2c1)c1cc(NC(=O)Cc2c(Cl)cccc2Cl)ccn1 | 141
